Source: patent US20230416245A1, “ADENOSINE ANALOGS FOR THE TREATMENT OF DISEASE” (BIOINTERVENE, INC., priority 2020, published 2023)

Target: ADORA3 (Homo sapiens (Human), UniProt P0DMS8)
Assay: Intracellular calcium release assay (FLIPR)
Format: cell-based
Settings: for EC50: CHO-K1 cells, Fluo-4, top concentration 10 μM, read-out: Cell Calcium Assay EC50; for Cell Calcium Efficacy (%): percentage of the response to NECA
Method in brief: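 Cells stably expressing ADORA3 (20,000/well, 16–20 h) were loaded with Fluo-4 Direct plus 2.5 mM probenecid for 50 min at 37 °C and 10 min at RT. Compounds (10-point, 3-fold series) were added on FLIPR and the Max–Min fluorescence taken. Activation % was set against high-agonist and DMSO wells, with variable-slope EC50 and efficacy relative to NECA.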

ADORA3, sequence (P0DMS8 whole entry): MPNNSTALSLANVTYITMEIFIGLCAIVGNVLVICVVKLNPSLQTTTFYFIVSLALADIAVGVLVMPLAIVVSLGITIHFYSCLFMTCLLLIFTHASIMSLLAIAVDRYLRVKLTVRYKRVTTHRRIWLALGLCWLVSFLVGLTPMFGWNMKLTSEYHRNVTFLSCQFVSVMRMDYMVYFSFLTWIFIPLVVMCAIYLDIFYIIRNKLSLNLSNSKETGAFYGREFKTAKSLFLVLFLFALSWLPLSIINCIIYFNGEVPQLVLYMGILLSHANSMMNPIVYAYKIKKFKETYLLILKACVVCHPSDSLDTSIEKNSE

EC50	Cell Calcium Efficacy (%)	Compound
4.7 nM	46.8%	O[C@@H]1[C@H](O)[C@@H]2C[C@@H]2[C@H]1n1cnc2c(NCC(F)F)nc(Cl)nc21 [Compound 35, (1R,2R,3S,4R,5S)-4-(2-chloro-6-((2,2-difluoroethyl)amino)-9H-purin-9-yl)bicyclo[3.1.0]hexane-2,3-diol]
6.1 nM	55.9%	O[C@@H]1[C@H](O)[C@@H]2C[C@@H]2[C@H]1n1cnc2c(NCC(F)F)cc(Cl)nc21 [Compound 40, (1R,2R,3S,4R,5S)-4-(5-chloro-7-((2,2-difluoroethyl)amino)-3H-imidazo[4,5-b]pyridin-3-yl)bicyclo[3.1.0]hexane-2,3-diol]
≥ 10000 nM	4.8%	CCNc1cc(C#CC2CC2)nc2c1ncn2[C@H]1[C@H](O)[C@H](O)[C@@H]2C[C@@H]21 [Compound 46, (1R,2R,3S,4R,5S)-4-(5-(cyclopropylethynyl)-7-(ethylamino)-3H-imidazo[4,5-b]pyridin-3-yl)bicyclo[3.1.0]hexane-2,3-diol]
> 10000 nM	10%	Cc1c(Cl)nc2c(ncn2[C@H]2[C@H](O)[C@H](O)[C@@H]3C[C@@H]32)c1NCC(F)F [Compound 60, (1R,2R,3S,4R,5S)-4-(5-chloro-7-((2,2-difluoroethyl)amino)-6-methyl-3H-imidazo[4,5-b]pyridin-3-yl)bicyclo[3.1.0]hexane-2,3-diol]
